Assay results taken from publication PMC3060409 (Biochemical and biophysical research communications, 2011).
Ends that are not written are not given here.

Experiments:
SOPT1 and SOPT2 = settings: ref [5]; cited from earlier work
[1] = test system: SOPT1 ([3H]-deltorphin II uptake in mouse RPE cells); experiment: Inhibition/stimulation of [3H]-deltorphin II uptake in mouse primary RPE cells; assay type: cell-based, mouse (C57/Bl6); settings: [3H]-deltorphin II 20 nM, 30 min
SOPT1 = settings: ref [2]; cited from earlier work
[2] = test system: SOPT2 ([3H]-DADLE uptake in RPE cells); experiment: Inhibition of [3H]-DADLE uptake in human RPE cells; assay type: cell-based
[3] = test system: ARPE-19 cells (SOPT1 and SOPT2); assay type: cell-based, human; settings: naloxone 1 mM, 15 min preincubation, FITC-hepcidin 2.5 μM
ferroportin = settings: target cells; ref [14]; cited from earlier work
transferrin receptor 1 = experiment: Transferrin receptor 1 expression; assay type: cell-based; settings: mouse RPE; hepcidin treatment; data not shown
hemojuvelin = experiment: Hemojuvelin expression; assay type: cell-based; settings: mouse RPE; hepcidin treatment; data not shown
ferroportin mRNA [4] = experiment: Ferroportin mRNA levels, real-time RT-PCR; assay type: cell-based; settings: mouse primary RPE; hepcidin 2 μg/ml, 8 h; P < 0.001 (Fig. 4)
ferroportin mRNA [5] = experiment: Ferroportin mRNA levels, semi-quantitative RT-PCR; assay type: cell-based; settings: mouse primary RPE; hepcidin 2 μg/ml, 8 h; HPRT1 internal control
HFE mRNA = HFE mRNA levels, RT-PCR; assay type: cell-based; settings: mouse primary RPE; hepcidin 2 μg/ml, 8 h
transferrin = experiment: Transferrin expression; assay type: cell-based; settings: mouse RPE; hepcidin treatment; data not shown
[6] = test system: SOPT1 ([3H]-deltorphin II uptake in RPE cells); experiment: Inhibition of [3H]-deltorphin II uptake in human RPE cells; assay type: cell-based; settings: [3H]-deltorphin II 20 nM, 30 min
[7] = test system: SOPT2 ([3H]-DADLE uptake in mouse RPE cells); experiment: Inhibition of [3H]-DADLE uptake in mouse primary RPE cells; assay type: cell-based, mouse (C57/Bl6); settings: hepcidin 25 μM, [3H]-DADLE 10 nM, 30 min

For “HIV-Tat47–57: exogenous oligopeptide recognized by SOPT1 and SOPT2 (YGRKKRRQRRR; Tat; UniProt P04608 47-57, looked up, fragment)”, the “recognition by SOPT1 and SOPT2” value (SOPT1 and SOPT2) is listed as “recognize”.
In the case of Gly-Gly-Ile, the “effect on deltorphin II uptake (stimulation)” value ([1]; mouse RPE cells, Gly-Gly-Ile 1 mM) is listed as “stimulated deltorphin II uptake” and the “stimulation of SOPT1” value (SOPT1) is listed as “potent stimulator of SOPT1”.
With [tyrosyl-3,5–^3H(N)]DADLE [[^3H]-DADLE] the “non-mediated diffusional component of uptake” value ([2]; [3H]-DADLE uptake in presence of 1 mM unlabeled DADLE, pH 7.5) was < 5 % of measured total uptake.
With C=CCN1CC[C@]23c4c5ccc(O)c4O[C@H]2C(=O)CC[C@@]3(O)[C@H]1C5 [naloxone] the “effect on FITC-hepcidin uptake (flow cytometry)” value [3] was “did not alter the uptake”.
For “DTHFPICIFCCGCCHRSKCGYCCKT (cysteine pairing not given here) [hepcidin]”, the “binding to ferroportin with internalization and degradation” value (ferroportin) is given as “binds to ferroportin on target cells and that this complex gets internalized with subsequent degradation”, the “transferrin receptor 1 expression” value (transferrin receptor 1) is given as “none of these genes was altered” and the hemojuvelin expression (hemojuvelin) is given as “none of these genes was altered”. For the same compound, the “ferroportin mRNA levels (real-time RT-PCR)” value (ferroportin mRNA [4]) was “decrease in ferroportin mRNA levels was confirmed”, the “dose dependence of DADLE uptake inhibition” value ([2]; [3H]-DADLE 10 nM, 30 min, Fig. 1C) was “dose-dependent” and the “ferroportin mRNA levels (RT-PCR)” value (ferroportin mRNA [5]) was “significant reduction in ferroportin mRNA levels”. The “HFE mRNA levels” value (HFE mRNA) was “no effect on HFE mRNA levels”, the “inhibition of deltorphin II uptake” value ([1]; hepcidin 25 μM, mouse primary RPE) was “almost completely inhibited” and the transferrin expression (transferrin) was “none of these genes was altered”. The “dose dependence of deltorphin II uptake inhibition” value ([6]; RPE cells, Fig. 1B) was “dose-dependent”, the IC50 ([6]; read-out: IC50, inhibition of deltorphin II uptake, ARPE-19 cells, 25 mM HEPES/Tris pH 7.5, 140 mM NaCl, means ± S.E., three independent experiments in duplicate) was 420 ± 120 nM and the “inhibition of DADLE uptake” value [7] was “almost completely inhibited”.
